Assay results taken from paper PMC9457600, “Synthesis, Leishmanicidal, Trypanocidal, Antiproliferative Assay and Apoptotic Induction of (2-Phenoxypyridin-3-yl)naphthalene-1(2H)-one Derivatives” (Molecules, 2022).

Key:
[1] = test system: BMDM macrophages; experiment: MTT cytotoxicity on BMDM macrophages; type: cell-based; settings: Mus musculus, 72 h
Source text: T. cruzi epimastigotes MHOM/VE/92/YBM venezuelan strain were used to test the anti T. cruzi in vitro studies. The strain was maintained in a modified LIT medium with 10% fetal bovine serum (FBS). Mouse bone marrow was used to obtain BMDM macrophages. Mouse fibroblast-conditioned medium L-929 was used for the differentiation and maintenance of BMDM macrophages. We evaluated through a colorimetric method the effect of compounds 8–23 on the promastigotes of L. brasiliensis. Briefly, 96-well plates were used, where 2 × 10^6 parasites/mL were seeded. A concentration of 50 μM was used for each compound and an incubation time of 96 h at 29 °C. 3-(4,5-dimethylthiazol-2-yl)-2,5-diphenyl tetrazolium bromide (MTT) 1 μg/mL was added and incubated in darkness for 4 h, acidic isopropanol (4N) was added and the plate was read at 570 nm in a spectrophotometer Synergy HT (Biotek). Miltefosine was used as a reference drug. The EC50 calculation of the selected compound was performed using growth curves. Direct counting was used to monitor the proliferation of parasites, three independent experiments were performed for each concentration of the compounds evaluated. The in vitro evaluations of compounds toxicity by MTT in VERO and BMDM cells follow a methodology described above with some modifications. The selectivity index was calculated with SI = CC50/EC50, where CC50 was the maximum concentration range of compounds 10, 21–23 used to evaluate cytotoxicity in VERO and BMDM cells. The trypanocidal activity of compounds 8–23 was evaluated on the viability of T. cruzi epimastigotes through a colorimetric method adapted with minor modifications. 2 × 10^6 parasites/mL were seeded in a 96-well plate, adding 50 μM of each derivative dissolved in DMSO (final concentration remained below 1%). The plate was incubated for 96 h at 29 °C. Then, 1 μg/mL of 3-(4,5-dimethylthiazol-2-yl)-2,5-diphenyl tetrazolium bromide (MTT) was added and incubated in darkness for 4 h. After this time, acidic isopropanol (4N) was added and the plate was read at 570 nm in a spectrophotometer Synergy HT (Biotek). Benznidazole was used as a reference drug. The in vitro evaluations of compounds toxicity by MTT in VERO and BMDM cells follow a methodology described above with some modifications. Cells were counted in suspension and seeded at 20 × 10^3 cells/well. The test was carried out in triplicate on 96-well microplates in different concentrations: 50 μM, 100 μM, 200 μM and 300 μM, untreated cells and reference drug (benznidazole) controls.

[2] = test system: CEM-DNR; experiment: MTS antiproliferative assay CEM-DNR; type: cell-based; settings: Homo sapiens, 72 h of incubation, daunorubicin-resistant
Source text: (§1) The cell lines used were acquired from the American Type Culture Collection (ATCC), CCRF-CEM (T lymphoblastic leukemia), K562 ([…]), U2OS (osteosarcoma), HCT116 (colon carcinoma), A549 (lung adenocarcinoma) and HCT116p53−/− (HCT116 cell line mutated in p53) Horizon Discovery Ltd., (Waterbeach, Cambridge, United Kingdom).
(§2) In our laboratory, IMTM, we generated the daunorubicin-resistant subline of CCRF-CEM cells (CEM-DNR bulk) and paclitaxel-resistant subline K562-TAX, as described previously. […] Both ABC transporters are involved in drug resistance. As a control, human fibroblasts MRC-5 and BJ cell lines were used. […] Adherent cells were passaged using PBS containing 0.25% trypsin plus 0.01% EDTA (ethylenediamine tetraacetic acid) every 2–3 days.
(§3) The antiproliferative activity of compounds was determined using a standard 3-(4,5-dimethylthiazol-2yl)-5-(3-carboxymethoxyphenyl)-2-(4-sulfophenyl)-2H-tetrazolium (MTS) reduction assay on a robotic high throughput screening platform (HighResBio, Boston, MA, USA) following treatment of cells for 3–7 days. The IC50 values were calculated from the appropriate dose–response curves with Dotmatics software (San Diego, CA, USA).

[3] = test system: K562-TAX; experiment: MTS antiproliferative assay K562-TAX; type: cell-based, human; settings: 72 h of incubation, paclitaxel-resistant
Source text: as §1, §2, §3

[4] = test system: A549; experiment: MTS antiproliferative assay A549; type: cell-based, human; settings: 72 h of incubation
Source text: as §1, §2, §3

[5] = test system: U2OS; experiment: MTS antiproliferative assay U2OS; type: cell-based; settings: Homo sapiens, 72 h of incubation
Source text: as §1, §2, §3

[6] = test system: MRC-5; experiment: MTS assay on non-malignant MRC-5; type: cell-based; settings: MRC5; noncancerous human cell line
Experimental: as §2, §3

[7] = test system: K562 cell line; experiment: Annexin V-FITC/PI flow cytometry apoptosis assay K562; type: cell-based, human; settings: 24 h
Experimental: Cell death was assessed after 24 h incubation with compounds 18 and 22. Apoptosis was analyzed by flow cytometry using annexin V-FITC and propidium iodide (PI). Early apoptosis was defined by annexin V-FITC expression and, necrosis by PI expression, late apoptosis by coexpression of annexin V/PI. Doxorubicin and quercetin were used as positive controls. The results of a typical flow cytometry analysis of both compounds are illustrated in Figure 2 and Figure 3. An increase in early apoptosis and late apoptosis was observed; necrosis was less predominant. The results are summarized in Tables S1 and S2 (Supplementary Materials). The expression of annexin V was different depending on the compound used. K562, A549 cell lines were treated as described by the manufacturer (Santa Cruz Biotechnology), washed, and resuspended in annexin V binding buffer (0.01 M HEPES, 0.14 M NaCl, and 2.5 mM CaCl2) with the subsequent incubation of annexinV-FITC and then PI. An Epics XL cytometer (Beckman Coulter, Indianapolis, IN, USA) was used for the analysis. Untreated cells were the negative controls, and doxorubicin (Dox) (1 μM), and quercetin (QC) (50 μM) were the positive controls. Early apoptosis refers to annexin V expression, late apoptosis, the coexpression of annexin V and PI, and necrosis the sole expression of PI. […] The experiments were performed as described before. To avoid the unwanted effects of DMSO, the concentrations of the compounds were never higher than 100 μM.

`COc1ccc2c(c1)CC/C(=C\c1cccnc1Oc1ccc(Cl)cc1)C2=O` [Compound 22, (E)-2-{[2-(4-Chlorophenoxy)pyridin-3-yl]methylene}-3,4-dihydro-6-methoxynaphthalen-1(2H)-one] was tested, and the EC50 [1] was 468 µM, the IC50 [2] was 22.5 ± 4.77 µM and the IC50 [3] was 21.4 ± 4.08 µM. The IC50 ([3]; Homo sapiens, K562-Tax, 72 h) was > 21.4 µM, the IC50 [4] was 9.74 ± 1.28 µM and the IC50 ([4]; Homo sapiens, A549, 72 h) was 9.64 to 9.74 µM. For the same compound, the IC50 [5] was 8.1 ± 1.71 µM, the IC50 [6] was > 50 µM and the “AV+/IP+ (late apoptosis)” value ([7]; K562, 5 µM) was 1.85%. The “AV+/IP- (early apoptosis)” value ([7]; K562, 5 µM) was 20.90%, the “AV-/IP+ (necrosis)” value ([7]; K562, 5 µM) was 0.44% and the “AV+/IP+ (late apoptosis)” value ([7]; K562, 10 µM) was 77.70%. The “AV+/IP- (early apoptosis)” value ([7]; K562, 10 µM) was 21.80%, the “AV-/IP+ (necrosis)” value ([7]; K562, 10 µM) was 0.29% and the “annexin V-FITC expression” value ([7]; K562, 10 µM) was “higher than 50%”.
